Test results: the supplement of paper PMC12076712

Experiments:
Experiment in all cases: pIC50, kinobeads binding competition
IRAK3 = target: T1, IRAK3 (UniProt Q9Y616); details: cell material: Lysate mix
T1 sequence (whole entry): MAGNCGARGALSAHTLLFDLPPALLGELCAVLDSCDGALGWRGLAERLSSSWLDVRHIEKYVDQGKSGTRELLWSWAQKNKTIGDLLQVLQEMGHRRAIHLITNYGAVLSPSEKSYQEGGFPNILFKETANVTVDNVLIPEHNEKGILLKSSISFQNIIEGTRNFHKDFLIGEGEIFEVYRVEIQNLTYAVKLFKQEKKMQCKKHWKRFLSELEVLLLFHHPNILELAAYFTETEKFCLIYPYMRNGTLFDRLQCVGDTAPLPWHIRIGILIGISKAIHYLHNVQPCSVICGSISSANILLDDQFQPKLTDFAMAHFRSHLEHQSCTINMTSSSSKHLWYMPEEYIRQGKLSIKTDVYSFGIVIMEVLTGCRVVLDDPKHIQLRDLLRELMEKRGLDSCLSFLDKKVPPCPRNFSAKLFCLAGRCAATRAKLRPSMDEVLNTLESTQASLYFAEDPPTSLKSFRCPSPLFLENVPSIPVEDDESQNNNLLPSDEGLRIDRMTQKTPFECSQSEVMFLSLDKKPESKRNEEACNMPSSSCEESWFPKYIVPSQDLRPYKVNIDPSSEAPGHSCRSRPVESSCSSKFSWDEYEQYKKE
Outline: (§1)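 Either living Jurkat cells (60 min at 37 °C, then lysis) or lysates (60 min at 4 °C) were treated with nine compound concentrations from a top of 30 μM, in 1:4 steps for cells and 1:5 steps for lysates. The lysates were from Jurkat cells or a 1:1:1:1 mix of HEK293, K-562, HepG2 and placenta. Kinobeads-bound proteins were digested and quantified by TMT10 LC-MS/MS. pIC50 was calculated by logistic dose-response fitting (R drc package) of fold changes relative to vehicle, in biological duplicates.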

BTK = BTK (UniProt Q06187); details: cell material: Lysate mix
Outline: as §1

TBK1 = target: T2, TBK1 (UniProt Q9UHD2)
T2 sequence (whole entry): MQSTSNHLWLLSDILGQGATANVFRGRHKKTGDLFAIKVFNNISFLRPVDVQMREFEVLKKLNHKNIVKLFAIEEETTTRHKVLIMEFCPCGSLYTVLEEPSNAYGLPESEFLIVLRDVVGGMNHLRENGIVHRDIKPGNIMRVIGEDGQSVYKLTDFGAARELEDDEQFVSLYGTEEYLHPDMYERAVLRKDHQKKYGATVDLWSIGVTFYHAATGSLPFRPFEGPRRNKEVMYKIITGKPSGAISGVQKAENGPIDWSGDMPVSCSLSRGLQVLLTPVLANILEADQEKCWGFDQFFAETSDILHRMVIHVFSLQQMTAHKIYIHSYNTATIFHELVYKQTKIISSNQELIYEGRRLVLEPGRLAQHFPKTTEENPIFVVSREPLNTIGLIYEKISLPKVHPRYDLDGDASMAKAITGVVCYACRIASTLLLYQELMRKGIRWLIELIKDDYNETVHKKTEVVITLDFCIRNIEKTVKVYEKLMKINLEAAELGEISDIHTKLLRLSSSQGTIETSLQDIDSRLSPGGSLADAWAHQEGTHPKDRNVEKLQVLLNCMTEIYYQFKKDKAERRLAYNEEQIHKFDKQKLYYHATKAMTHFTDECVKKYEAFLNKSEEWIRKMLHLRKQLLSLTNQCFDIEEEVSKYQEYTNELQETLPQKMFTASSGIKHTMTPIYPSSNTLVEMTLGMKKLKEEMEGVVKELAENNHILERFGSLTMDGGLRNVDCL
Outline: as §1

ADCK1 = target: T3, ADCK1 (UniProt Q86TW2); details: cell material: Lysate mix
T3 sequence (whole entry): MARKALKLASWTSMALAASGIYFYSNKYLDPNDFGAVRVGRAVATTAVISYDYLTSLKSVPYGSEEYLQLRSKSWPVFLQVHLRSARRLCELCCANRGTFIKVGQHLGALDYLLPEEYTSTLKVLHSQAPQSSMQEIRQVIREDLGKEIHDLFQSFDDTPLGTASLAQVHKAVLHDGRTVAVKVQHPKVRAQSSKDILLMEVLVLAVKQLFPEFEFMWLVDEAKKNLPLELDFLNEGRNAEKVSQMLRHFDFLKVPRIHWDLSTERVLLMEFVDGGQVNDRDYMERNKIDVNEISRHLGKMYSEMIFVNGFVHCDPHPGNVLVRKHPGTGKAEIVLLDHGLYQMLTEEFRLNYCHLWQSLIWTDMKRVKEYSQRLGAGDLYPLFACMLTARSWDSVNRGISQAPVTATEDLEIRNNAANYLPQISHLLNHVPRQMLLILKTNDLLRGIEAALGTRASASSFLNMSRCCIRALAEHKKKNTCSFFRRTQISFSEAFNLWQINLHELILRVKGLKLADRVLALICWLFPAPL
Outline: as §1

UniProt Q96D53 = target: T4, UniProt Q96D53
T4 sequence (whole entry): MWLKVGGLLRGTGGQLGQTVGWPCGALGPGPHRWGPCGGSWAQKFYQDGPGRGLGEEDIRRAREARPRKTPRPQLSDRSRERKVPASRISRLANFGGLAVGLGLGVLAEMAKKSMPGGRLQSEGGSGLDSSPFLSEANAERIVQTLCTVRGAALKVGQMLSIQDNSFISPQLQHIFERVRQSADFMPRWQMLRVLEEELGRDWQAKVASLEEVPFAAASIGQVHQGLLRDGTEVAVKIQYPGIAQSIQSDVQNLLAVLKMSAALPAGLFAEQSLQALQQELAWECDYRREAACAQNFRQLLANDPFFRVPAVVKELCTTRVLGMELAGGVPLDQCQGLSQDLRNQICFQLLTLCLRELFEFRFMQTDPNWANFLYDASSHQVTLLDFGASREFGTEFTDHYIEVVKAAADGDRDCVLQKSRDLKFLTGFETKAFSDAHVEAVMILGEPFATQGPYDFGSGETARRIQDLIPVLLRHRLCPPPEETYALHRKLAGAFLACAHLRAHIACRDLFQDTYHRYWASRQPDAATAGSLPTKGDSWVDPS
Outline: as §1

Fes = Fes (UniProt P07332); details: cell material: Lysate mix
Outline: as §1

UniProt Q14004 = target: UniProt Q14004
Outline: as §1

UniProt P45984 = target: UniProt P45984
Outline: as §1

CLK3 = CLK3 (UniProt P49761)
Outline: as §1

RPS6KA6 = RPS6KA6 (UniProt Q9UK32); details: cell material: Lysate mix
Outline: as §1

KIT = KIT (UniProt P10721); details: cell material: Lysate mix
Outline: as §1

Sequence of UniProt P45984 (P45984 whole entry, looked up): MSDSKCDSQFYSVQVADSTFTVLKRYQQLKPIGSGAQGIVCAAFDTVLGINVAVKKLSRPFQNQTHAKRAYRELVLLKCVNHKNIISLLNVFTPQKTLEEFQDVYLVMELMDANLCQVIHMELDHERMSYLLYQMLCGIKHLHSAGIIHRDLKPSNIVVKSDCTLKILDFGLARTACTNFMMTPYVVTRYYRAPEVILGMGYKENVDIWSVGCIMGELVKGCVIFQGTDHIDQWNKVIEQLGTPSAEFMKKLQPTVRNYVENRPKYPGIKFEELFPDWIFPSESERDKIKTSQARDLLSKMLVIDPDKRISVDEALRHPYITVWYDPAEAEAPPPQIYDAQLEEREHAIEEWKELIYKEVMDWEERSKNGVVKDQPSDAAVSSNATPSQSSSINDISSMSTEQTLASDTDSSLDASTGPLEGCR
Sequence of RPS6KA6 (Q9UK32 whole entry): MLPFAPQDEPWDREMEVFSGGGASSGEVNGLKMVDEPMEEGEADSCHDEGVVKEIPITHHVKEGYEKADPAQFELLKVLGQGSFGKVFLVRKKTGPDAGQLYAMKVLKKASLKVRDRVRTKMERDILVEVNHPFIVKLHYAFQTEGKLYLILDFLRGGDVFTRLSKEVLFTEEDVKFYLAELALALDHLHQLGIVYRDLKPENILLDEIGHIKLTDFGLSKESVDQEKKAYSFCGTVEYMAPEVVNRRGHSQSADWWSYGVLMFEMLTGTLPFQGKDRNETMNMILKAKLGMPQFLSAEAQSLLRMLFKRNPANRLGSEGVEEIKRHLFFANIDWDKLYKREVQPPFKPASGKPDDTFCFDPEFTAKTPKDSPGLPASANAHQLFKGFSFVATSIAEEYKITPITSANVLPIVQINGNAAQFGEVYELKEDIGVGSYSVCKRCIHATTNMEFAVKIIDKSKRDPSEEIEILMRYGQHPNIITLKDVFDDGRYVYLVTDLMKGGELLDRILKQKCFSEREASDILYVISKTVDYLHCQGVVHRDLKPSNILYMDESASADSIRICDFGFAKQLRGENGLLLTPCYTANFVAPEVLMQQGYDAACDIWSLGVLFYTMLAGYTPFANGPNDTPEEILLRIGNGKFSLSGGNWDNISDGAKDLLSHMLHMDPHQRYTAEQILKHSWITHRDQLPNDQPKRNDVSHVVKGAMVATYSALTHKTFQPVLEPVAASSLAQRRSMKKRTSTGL
Sequence of BTK (Q06187 whole entry): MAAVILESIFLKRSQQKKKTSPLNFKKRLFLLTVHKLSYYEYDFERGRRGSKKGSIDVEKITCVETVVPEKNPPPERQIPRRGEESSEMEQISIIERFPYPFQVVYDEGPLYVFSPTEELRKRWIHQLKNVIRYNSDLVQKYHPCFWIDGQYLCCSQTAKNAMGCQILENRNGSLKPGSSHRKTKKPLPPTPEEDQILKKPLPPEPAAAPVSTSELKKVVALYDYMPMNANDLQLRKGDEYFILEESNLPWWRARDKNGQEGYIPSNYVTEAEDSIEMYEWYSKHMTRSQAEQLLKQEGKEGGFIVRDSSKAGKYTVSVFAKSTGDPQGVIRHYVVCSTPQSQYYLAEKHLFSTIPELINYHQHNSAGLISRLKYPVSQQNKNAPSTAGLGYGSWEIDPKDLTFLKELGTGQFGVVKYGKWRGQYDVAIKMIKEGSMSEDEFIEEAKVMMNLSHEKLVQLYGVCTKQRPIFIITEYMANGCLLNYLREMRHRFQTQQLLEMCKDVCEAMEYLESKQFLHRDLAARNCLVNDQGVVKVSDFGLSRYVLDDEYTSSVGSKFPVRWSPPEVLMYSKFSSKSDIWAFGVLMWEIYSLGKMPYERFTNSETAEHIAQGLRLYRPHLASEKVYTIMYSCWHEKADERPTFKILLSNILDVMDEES
Sequence of CLK3 (P49761 whole entry, looked up): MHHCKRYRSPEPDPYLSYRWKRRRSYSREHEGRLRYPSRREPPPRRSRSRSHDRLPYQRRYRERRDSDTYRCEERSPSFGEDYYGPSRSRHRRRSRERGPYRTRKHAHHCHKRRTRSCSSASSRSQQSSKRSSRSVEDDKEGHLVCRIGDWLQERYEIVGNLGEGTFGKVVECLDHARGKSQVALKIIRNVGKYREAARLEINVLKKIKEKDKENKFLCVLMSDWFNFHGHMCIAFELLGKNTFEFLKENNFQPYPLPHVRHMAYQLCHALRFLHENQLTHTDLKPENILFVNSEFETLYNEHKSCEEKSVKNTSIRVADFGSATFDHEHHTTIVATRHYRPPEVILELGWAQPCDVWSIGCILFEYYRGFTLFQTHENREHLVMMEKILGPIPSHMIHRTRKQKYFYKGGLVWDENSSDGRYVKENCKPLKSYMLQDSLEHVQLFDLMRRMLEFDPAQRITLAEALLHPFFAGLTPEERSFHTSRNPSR
Sequence of KIT (P10721 whole entry): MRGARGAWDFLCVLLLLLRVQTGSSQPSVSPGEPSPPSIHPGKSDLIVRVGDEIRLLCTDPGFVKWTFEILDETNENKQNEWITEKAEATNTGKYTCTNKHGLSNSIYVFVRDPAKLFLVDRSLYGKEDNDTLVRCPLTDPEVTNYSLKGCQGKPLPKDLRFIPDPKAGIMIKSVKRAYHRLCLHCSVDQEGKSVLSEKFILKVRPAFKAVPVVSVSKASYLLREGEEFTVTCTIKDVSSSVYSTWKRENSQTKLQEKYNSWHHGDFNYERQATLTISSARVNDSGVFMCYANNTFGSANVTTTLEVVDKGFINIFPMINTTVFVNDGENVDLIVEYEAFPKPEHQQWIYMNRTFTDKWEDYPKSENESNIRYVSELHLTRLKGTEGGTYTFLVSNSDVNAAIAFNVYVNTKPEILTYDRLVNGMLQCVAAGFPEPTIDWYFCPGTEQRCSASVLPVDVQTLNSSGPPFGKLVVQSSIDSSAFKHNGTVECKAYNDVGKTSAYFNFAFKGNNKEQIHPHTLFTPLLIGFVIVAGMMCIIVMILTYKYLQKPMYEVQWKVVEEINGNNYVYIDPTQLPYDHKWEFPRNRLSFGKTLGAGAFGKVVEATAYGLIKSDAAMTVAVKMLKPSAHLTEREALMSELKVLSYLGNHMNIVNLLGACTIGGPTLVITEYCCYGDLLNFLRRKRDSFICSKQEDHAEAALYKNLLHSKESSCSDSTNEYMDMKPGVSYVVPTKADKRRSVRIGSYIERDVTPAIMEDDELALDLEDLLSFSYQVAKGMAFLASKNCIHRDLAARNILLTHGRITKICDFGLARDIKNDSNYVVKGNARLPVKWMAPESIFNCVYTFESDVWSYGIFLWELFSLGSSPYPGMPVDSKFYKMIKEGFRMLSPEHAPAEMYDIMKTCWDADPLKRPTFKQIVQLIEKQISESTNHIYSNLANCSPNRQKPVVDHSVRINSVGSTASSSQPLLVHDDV
Sequence of UniProt Q14004 (Q14004 whole entry, looked up): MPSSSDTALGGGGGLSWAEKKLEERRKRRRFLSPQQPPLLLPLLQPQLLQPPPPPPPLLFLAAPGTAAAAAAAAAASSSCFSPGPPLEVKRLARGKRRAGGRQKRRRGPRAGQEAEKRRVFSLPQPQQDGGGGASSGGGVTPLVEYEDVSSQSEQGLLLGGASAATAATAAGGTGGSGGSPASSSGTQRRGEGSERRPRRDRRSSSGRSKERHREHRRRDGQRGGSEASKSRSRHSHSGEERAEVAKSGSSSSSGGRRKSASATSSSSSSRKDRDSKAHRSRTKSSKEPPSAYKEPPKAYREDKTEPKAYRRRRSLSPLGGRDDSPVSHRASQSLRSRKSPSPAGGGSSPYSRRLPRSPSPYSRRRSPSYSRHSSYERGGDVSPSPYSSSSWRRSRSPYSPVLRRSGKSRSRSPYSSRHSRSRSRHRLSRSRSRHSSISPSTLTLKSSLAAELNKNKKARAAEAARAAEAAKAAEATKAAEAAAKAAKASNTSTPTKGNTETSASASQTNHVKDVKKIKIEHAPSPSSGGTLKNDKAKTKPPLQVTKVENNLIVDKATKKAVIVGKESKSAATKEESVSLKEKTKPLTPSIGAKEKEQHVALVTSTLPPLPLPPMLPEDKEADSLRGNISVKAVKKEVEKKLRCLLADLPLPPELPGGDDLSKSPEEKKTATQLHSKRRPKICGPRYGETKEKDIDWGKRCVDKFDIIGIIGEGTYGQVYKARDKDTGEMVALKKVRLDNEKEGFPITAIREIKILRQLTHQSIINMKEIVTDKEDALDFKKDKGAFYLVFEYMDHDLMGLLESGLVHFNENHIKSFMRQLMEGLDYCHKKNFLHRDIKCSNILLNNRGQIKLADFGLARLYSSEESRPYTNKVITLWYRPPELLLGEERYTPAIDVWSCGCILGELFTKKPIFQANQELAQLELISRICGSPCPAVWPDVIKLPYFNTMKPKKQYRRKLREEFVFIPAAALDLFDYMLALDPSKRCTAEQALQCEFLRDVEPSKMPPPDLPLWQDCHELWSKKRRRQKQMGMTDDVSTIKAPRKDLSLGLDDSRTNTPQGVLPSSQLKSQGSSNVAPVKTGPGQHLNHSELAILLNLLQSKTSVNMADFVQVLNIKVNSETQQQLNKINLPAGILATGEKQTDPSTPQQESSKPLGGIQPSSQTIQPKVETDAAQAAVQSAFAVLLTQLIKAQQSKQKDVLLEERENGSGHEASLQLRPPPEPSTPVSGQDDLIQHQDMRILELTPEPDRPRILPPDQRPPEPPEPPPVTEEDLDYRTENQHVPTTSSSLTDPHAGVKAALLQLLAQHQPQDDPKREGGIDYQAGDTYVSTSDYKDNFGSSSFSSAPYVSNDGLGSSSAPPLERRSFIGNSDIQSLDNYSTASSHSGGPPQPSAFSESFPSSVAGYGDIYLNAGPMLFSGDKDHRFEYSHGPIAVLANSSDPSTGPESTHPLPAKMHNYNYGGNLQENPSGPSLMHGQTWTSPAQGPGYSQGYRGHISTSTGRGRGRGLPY

Row | pIC50 (IRAK3) | pIC50 (BTK) | pIC50 (TBK1; cell material: Lysate mix) | pIC50 (ADCK1) | pIC50 (UniProt Q96D53; cell material: Lysate mix) | pIC50 (Fes) | pIC50 (UniProt Q14004; cell material: Lysate mix) | pIC50 (CLK3; cell material: Lysate mix) | pIC50 (RPS6KA6) | pIC50 (KIT) | pIC50 (UniProt P45984; cell material: Lysate mix) | SMILES | pIC50 (TBK1; cell material: Jurkat cells) | pIC50 (TBK1; cell material: Jurkat lysate) | pIC50 (UniProt Q96D53; cell material: Jurkat cells) | pIC50 (UniProt Q14004; cell material: Jurkat cells) | pIC50 (UniProt Q14004; cell material: Jurkat lysate) | pIC50 (UniProt P45984; cell material: Jurkat cells) | pIC50 (UniProt P45984; cell material: Jurkat lysate) | pIC50 (CLK3; cell material: Jurkat lysate)
1 | < 4.52 | < 4.52 | < 4.52 | < 4.52 | < 4.52 | < 4.52 | < 4.52 | < 4.52 | < 4.52 |  |  | O=C(NCCNC(=O)c1cc(Nc2cc(C3CC3)[nH]n2)nc(N2CCN(Cc3ccc(S(=O)(=O)F)cc3)CC2)n1)OC1CC/C=C/CCC1 (configuration not stated) | 5.71 | < 4.52 | < 4.52 | 6.02 | < 4.52 | 5.7 | < 4.52 | < 4.52
2 |  | < 4.52 | < 4.52 | < 4.52 |  | < 4.52 | < 4.52 |  | < 4.52 |  |  | Cc1cc(Nc2cc(C(=O)NCCNC(=O)OC3CC/C=C/CCC3)nc(N3CCN(Cc4ccc(S(=O)(=O)F)cc4)CC3)n2)n[nH]1 (configuration not stated) |  |  |  |  |  |  |  | 
3 |  |  | 5.34 |  |  |  |  | 4.85 | 4.87 | < 4.52 | 5.62 | CCNC(=O)c1cc(Nc2cc(C3CC3)[nH]n2)nc(N2CCN(Cc3ccc(S(=O)(=O)F)cc3)CC2)n1 |  |  |  |  |  |  |  | 
4 |  | < 4.52 |  | < 4.52 | < 4.52 | < 4.52 | < 4.52 | < 4.52 |  | < 4.52 | 5.2 | CCNC(=O)c1cc(Nc2cc(C)[nH]n2)nc(N2CCN(Cc3ccc(S(=O)(=O)F)cc3)CC2)n1 |  |  |  |  |  |  |  | 
5 | < 4.52 | < 4.52 | < 4.52 | < 4.52 |  | < 4.52 | < 4.52 | < 4.52 | < 4.52 | < 4.52 | 5.34 | C#CCNC(=O)c1cc(Nc2cc(C)[nH]n2)nc(N2CCN(Cc3ccc(S(=O)(=O)F)cc3)CC2)n1 |  |  |  |  |  |  |  | 

Row | SMILES | pIC50 (IRAK3) | pIC50 (BTK) | pIC50 (TBK1; cell material: Lysate mix) | pIC50 (ADCK1) | pIC50 (UniProt Q96D53; cell material: Lysate mix) | pIC50 (Fes) | pIC50 (UniProt Q14004; cell material: Lysate mix) | pIC50 (CLK3; cell material: Lysate mix) | pIC50 (RPS6KA6) | pIC50 (KIT) | pIC50 (UniProt P45984; cell material: Lysate mix) | pIC50 (TBK1; cell material: Jurkat cells) | pIC50 (TBK1; cell material: Jurkat lysate) | pIC50 (UniProt Q96D53; cell material: Jurkat cells) | pIC50 (UniProt Q14004; cell material: Jurkat cells) | pIC50 (UniProt Q14004; cell material: Jurkat lysate) | pIC50 (UniProt P45984; cell material: Jurkat cells) | pIC50 (UniProt P45984; cell material: Jurkat lysate) | pIC50 (CLK3; cell material: Jurkat lysate)
6 | C#CCNC(=O)c1cc(Nc2cc(C3CC3)[nH]n2)nc(N2CCN(Cc3ccc(S(=O)(=O)F)cc3)CC2)n1 | < 4.52 |  | 5.28 | < 4.52 |  | 5.24 |  | 5.15 | 4.94 | < 4.52 | 5.72 | 5.98 | < 4.52 | < 4.52 | 6.19 | < 4.52 | 5.92 | 5.22 | < 4.52
